From US9562060B2, “Heterocyclic pyridone compound, and intermediate, preparation method and use thereof” (SHANGHAI HUILUN LIFE SCIENCE & TECHNOLOGY CO., LTD, priority 2011, dated 2017)
Like-named read-outs stand apart in the source and are kept apart here.

Columns and labels:
[1] = biological target: T1, c-Met kinase (Homo sapiens, UniProt P08581); test: Inhibitory activity of compound to c-Met kinases (Z'-LYTE kinase assay kit); assay type: biochemical; conditions: Tyr 6 substrate peptide, read-out: Strength of activity (inhibition on c-Met kinase, IC50)
T1 construct: purchased Invitrogen PV3143
T1 sequence (P08581 25-1390): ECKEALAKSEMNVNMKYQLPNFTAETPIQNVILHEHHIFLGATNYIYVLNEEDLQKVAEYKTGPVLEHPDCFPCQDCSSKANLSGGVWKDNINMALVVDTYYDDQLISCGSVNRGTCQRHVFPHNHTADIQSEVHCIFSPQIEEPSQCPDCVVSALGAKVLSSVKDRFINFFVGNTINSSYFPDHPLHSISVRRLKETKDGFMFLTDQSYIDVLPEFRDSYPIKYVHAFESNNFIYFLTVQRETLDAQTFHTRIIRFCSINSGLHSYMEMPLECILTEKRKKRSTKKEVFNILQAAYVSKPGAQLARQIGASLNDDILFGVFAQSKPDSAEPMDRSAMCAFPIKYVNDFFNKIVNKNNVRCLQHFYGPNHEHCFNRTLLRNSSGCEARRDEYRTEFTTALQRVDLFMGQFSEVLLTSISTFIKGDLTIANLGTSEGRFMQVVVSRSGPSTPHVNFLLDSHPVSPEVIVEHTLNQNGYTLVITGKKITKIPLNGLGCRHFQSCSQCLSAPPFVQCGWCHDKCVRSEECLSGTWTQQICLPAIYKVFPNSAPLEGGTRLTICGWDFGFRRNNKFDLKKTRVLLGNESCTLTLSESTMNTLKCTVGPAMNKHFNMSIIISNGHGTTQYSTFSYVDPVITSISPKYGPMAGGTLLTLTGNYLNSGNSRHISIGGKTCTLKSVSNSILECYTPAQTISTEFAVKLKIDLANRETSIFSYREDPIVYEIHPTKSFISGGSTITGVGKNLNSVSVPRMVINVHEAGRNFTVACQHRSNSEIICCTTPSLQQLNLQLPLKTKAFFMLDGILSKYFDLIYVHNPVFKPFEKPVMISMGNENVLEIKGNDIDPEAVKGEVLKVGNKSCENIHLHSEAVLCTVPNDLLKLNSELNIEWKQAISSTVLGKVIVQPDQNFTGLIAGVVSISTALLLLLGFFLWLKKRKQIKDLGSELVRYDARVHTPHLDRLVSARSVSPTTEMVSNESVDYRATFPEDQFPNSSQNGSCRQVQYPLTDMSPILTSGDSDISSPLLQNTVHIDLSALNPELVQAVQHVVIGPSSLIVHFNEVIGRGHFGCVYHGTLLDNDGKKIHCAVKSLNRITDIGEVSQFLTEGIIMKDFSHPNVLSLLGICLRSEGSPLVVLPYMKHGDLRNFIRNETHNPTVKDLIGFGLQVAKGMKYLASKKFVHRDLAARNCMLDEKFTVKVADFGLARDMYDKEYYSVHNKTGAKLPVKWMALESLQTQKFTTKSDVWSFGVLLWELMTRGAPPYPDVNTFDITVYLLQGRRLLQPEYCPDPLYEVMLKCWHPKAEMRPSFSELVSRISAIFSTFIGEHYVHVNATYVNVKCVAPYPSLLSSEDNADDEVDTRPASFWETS
Protocol: The inhibitory activity of the compound to c-Met kinases in vitro is determined through the following method.
The method described below can be used to determine the inhibiting capacity of the compound of the present invention on the c-Met kinase activity, and the inhibiting capacity is represented by IC50. The half inhibitory concentration IC50 (a concentration of the compound for inhibiting the enzyme activity to 50%) of the compound is obtained by: mixing and reacting a certain amount of kinase with a specific substrate and different concentrations of test compound, and then labeling the substrate with an anti-phosphotyrosine antibody and a […], and finally quantitatively determining the c-Met kinase activity through a time-resolved fluorescence method.
The specific experiment is implemented by using a Z′-LYTE kinase assay kit (Invitrogen, item PV4122). First, the test compound is diluted into 8 different concentrations from 100 μM at an interval of 1:5 with an ATP solution (Invitrogen, item PV3227); 5 μL 2×c-Met (Invitrogen, item PV3143) and 2×Z′-LYTE Tyr 6 substrate peptide are respectively taken up, and added to a 384-well microtiter plate, 5 μL diluted different concentrations of test compound are added in sequence, and the lid is closed. The microtiter plate is incubated for 60 min at room temperature (20° C. to 25° C.); and then 5 μL […] is added, and the lid is closed. The microtiter plate is incubated for 60 min at room temperature (20° C. to 25° C.); and then 5 μL termination reagent is added to the reaction well, to terminate the reaction. Finally, the fluorescence intensity (OD400) of each well is determined in a fluorescence analyzer (excitation wavelength: 400 nm). The inhibition rate is calculated, and the half inhibitory concentration (IC50) of the compound is calculated according to the inhibition rates of different concentrations.
For a negative control group, except that test compound (replaced by 5 μL ATP solution) is not added, all the other reagents are added. In addition, an enzyme-free control group (that is, blank group) is set.

[2] = system: Human gastric cancer cell SNU-5; test: Inhibition of in vitro proliferation of human gastric cancer cell SNU-5 (SRB); assay type: cell-based; conditions: SNU-5 cells, 72-hr agent treatment, read-out: Strength of activity (inhibition on SNU-5, IC50)
Protocol: Human gastric cancer cells SNU-5 are cultured in an IMDM medium containing 20% fetal bovine serum, and the culture conditions are 37° C. and 5% CO2. Tumor cells are inoculated in a 96-well plate, and after 24-hr sidewall growth, 9 different concentrations of (1 to 30000 nM) an agent are added, after 72-hr agent treatment, the medium is discarded, the cells are fixed by cold trichloroacetic acid, and then dyed with a sulforhodamine B (SRB) solution. Unbound SRB is washed off, and SRB bound with protein was dissolved with Tris, the OD is determined at a wavelength of 510 nm by a microplate reader, and the cell growth inhibition rate is calculated according to the following equation: Inhibition rate=(OD of control well-OD of administered well)/OD of control well×100%
According to the inhibition rates of different concentrations, the half inhibitory concentration IC50 is calculated by using a Logit method.

Compound	IC50 [1]	IC50 [2]	IC50 ([2]; Homo sapiens)
CN1CCN(C(=O)Nc2cc(Oc3ccc(NC(=O)c4cc5ncsc5n(-c5ccc(F)cc5)c4=O)cc3F)ccn2)CC1 [Embodiment 10]	100 to 1000 nM	–	< 100 nM
CN1CCN(C(=O)Nc2nccc(Oc3ccc(NC(=O)c4cc5ncsc5n(-c5ccc(F)cc5)c4=O)cc3F)c2Cl)CC1 [Embodiment 16]	100 to 1000 nM	–	100 to 500 nM
Nc1cc(Oc2ccc(NC(=O)c3cc4ncsc4n(-c4ccccc4CCO)c3=O)cc2F)ccn1 [Embodiment 18]	100 to 1000 nM	–	500 to 5000 nM
COc1ccc2c(Oc3ccc(NC(=O)c4cc5ncsc5n(-c5ccccc5CCO)c4=O)cc3F)ccnc2c1 [Embodiment 20]	100 to 1000 nM	–	< 100 nM
COc1cc2c(Oc3ccc(NC(=O)c4cc5ncsc5n(-c5ccccc5CCO)c4=O)cc3F)ccnc2cc1OCCCN1CCOCC1 [Embodiment 22]	> 1000 nM	–	500 to 5000 nM
COc1ccc2c(Oc3ccc(NC(=O)c4cc5nc(N(C)C)sc5n(-c5ccc(F)cc5)c4=O)cc3F)ccnc2c1 [Embodiment 25]	100 to 1000 nM	–	500 to 5000 nM
Cn1ncc2cc(C(=O)Nc3ccc(Oc4ccnc(N)c4)c(F)c3)c(=O)n(-c3ccc(F)cc3)c21 [Embodiment 28]	100 to 1000 nM	–	500 to 5000 nM
COc1ccc2c(Oc3ccc(NC(=O)c4cc5cnn(C)c5n(-c5ccc(F)cc5)c4=O)cc3F)ccnc2c1 [Embodiment 30]	100 to 1000 nM	–	–
Cn1ncc2cc(C(=O)Nc3ccc(Oc4ccnc5[nH]ccc45)c(F)c3)c(=O)n(-c3ccc(F)cc3)c21 [Embodiment 31]	10 to 100 nM	–	100 to 500 nM
COc1cc2c(Oc3ccc(NC(=O)c4cc5cnn(C)c5n(-c5ccc(F)cc5)c4=O)cc3F)ccnc2cc1OCCCN1CCOCC1 [Embodiment 32]	100 to 1000 nM	–	100 to 500 nM
Cn1cnc2cc(C(=O)Nc3ccc(Oc4ccnc(N)c4Cl)c(F)c3)c(=O)n(-c3ccc(F)cc3)c21 [Embodiment 33]	10 to 100 nM	–	–
Cn1cnc2cc(C(=O)Nc3ccc(Oc4ccnc(N)c4)c(F)c3)c(=O)n(-c3ccc(F)cc3)c21 [Embodiment 35]	100 to 1000 nM	–	–
Cn1cnc2cc(C(=O)Nc3ccc(Oc4ccnc5[nH]ccc45)c(F)c3)c(=O)n(-c3ccc(F)cc3)c21 [Embodiment 36]	10 to 100 nM	–	500 to 5000 nM
CN1CCOc2cc(C(=O)Nc3ccc(Oc4ccnc(N)c4Cl)c(F)c3)c(=O)n(-c3ccc(F)cc3)c21 [Embodiment 38]	100 to 1000 nM	–	500 to 5000 nM
CN1CCOc2cc(C(=O)Nc3ccc(Oc4ccnc(N)c4)c(F)c3)c(=O)n(-c3ccc(F)cc3)c21 [Embodiment 39]	10 to 100 nM	–	–
COc1cc2c(Oc3ccc(NC(=O)c4cc5c(n(-c6ccc(F)cc6)c4=O)N(C)CCO5)cc3F)ccnc2cc1OCCCN1CCOCC1 [Embodiment 42]	100 to 1000 nM	–	–
CN1CCOc2c1cc(C(=O)Nc1ccc(Oc3ccnc(N)c3)c(F)c1)c(=O)n2-c1ccc(F)cc1 [Embodiment 43]	10 to 100 nM	–	–
COc1cc2c(Oc3ccc(NC(=O)c4cc5c(n(-c6ccc(F)cc6)c4=O)OCCN5C)cc3F)ccnc2cc1OCCCN1CCOCC1 [Embodiment 45]	100 to 1000 nM	–	–
CN1CCOc2c1cc(C(=O)Nc1ccc(Oc3ccnc(N)c3Cl)c(F)c1)c(=O)n2-c1ccc(F)cc1 [Embodiment 46]	10 to 100 nM	–	–
CCOc1c(C(=O)Nc2ccc(Oc3ccnc(N)c3)c(F)c2)c(=O)n(-c2ccc(F)cc2)c2scnc12 [Embodiment 48]	100 to 1000 nM	–	–
CCOc1c(C(=O)Nc2ccc(Oc3ccnc4cc(OC)ccc34)c(F)c2)c(=O)n(-c2ccc(F)cc2)c2scnc12 [Embodiment 50]	10 to 100 nM	–	–
CCOc1c(C(=O)Nc2ccc(Oc3ccnc4[nH]ccc34)c(F)c2)c(=O)n(-c2ccc(F)cc2)c2scnc12 [Embodiment 51]	100 to 1000 nM	100 to 500 nM	–
CN(C)c1c(C(=O)Nc2ccc(Oc3ccnc(N)c3)c(F)c2)c(=O)n(-c2ccc(F)cc2)c2scnc12 [Embodiment 52]	10 to 100 nM	–	–
CN(C)c1c(C(=O)Nc2ccc(Oc3ccnc4[nH]ccc34)c(F)c2)c(=O)n(-c2ccc(F)cc2)c2scnc12 [Embodiment 55]	10 to 100 nM	–	–
CN(CCO)c1c(C(=O)Nc2ccc(Oc3ccnc(N)c3Cl)c(F)c2)c(=O)n(-c2ccc(F)cc2)c2scnc12 [Embodiment 57]	100 to 1000 nM	–	–
CN(CCO)c1c(C(=O)Nc2ccc(Oc3ccnc4[nH]ccc34)c(F)c2)c(=O)n(-c2ccc(F)cc2)c2scnc12 [Embodiment 59]	100 to 1000 nM	–	–

Next, values leading:

IC50 [1]	IC50 [2]	IC50 ([2]; Homo sapiens)	Compound
10 to 100 nM	100 to 500 nM	–	Cn1cnc(-c2cc3nccc(Oc4ccc(NC(=O)c5cc6ncsc6n(-c6ccc(F)cc6)c5=O)cc4F)c3s2)c1 [Embodiment 6]
10 to 100 nM	–	100 to 500 nM	CCn1cnc(-c2cc3nccc(Oc4ccc(NC(=O)c5cc6ncsc6n(-c6ccc(F)cc6)c5=O)cc4F)c3s2)c1 [Embodiment 7]
10 to 100 nM	–	500 to 5000 nM	Cc1n[nH]c2nccc(Oc3ccc(NC(=O)c4cc5ncsc5n(-c5ccc(F)cc5)c4=O)cc3F)c12 [Embodiment 8]
< 10 nM	100 to 500 nM	–	O=C(Nc1ccc(Oc2ccnc(NC(=O)N3CCCC3)c2)c(F)c1)c1cc2ncsc2n(-c2ccc(F)cc2)c1=O [Embodiment 9]
10 to 100 nM	–	–	O=C(Nc1ccc(Oc2ccnc(NC(=O)N3CCOCC3)c2)c(F)c1)c1cc2ncsc2n(-c2ccc(F)cc2)c1=O [Embodiment 11]
10 to 100 nM	–	100 to 500 nM	O=C(Nc1ccc(Oc2ccnc(NC(=O)N3CCC(O)CC3)c2)c(F)c1)c1cc2ncsc2n(-c2ccc(F)cc2)c1=O [Embodiment 12]
10 to 100 nM	–	–	CN(C)CC1CCN(C(=O)Nc2cc(Oc3ccc(NC(=O)c4cc5ncsc5n(-c5ccc(F)cc5)c4=O)cc3F)ccn2)CC1 [Embodiment 13]
10 to 100 nM	–	–	CN(CCO)C(=O)Nc1cc(Oc2ccc(NC(=O)c3cc4ncsc4n(-c4ccc(F)cc4)c3=O)cc2F)ccn1 [Embodiment 14]
10 to 100 nM	–	–	CN(C)C/C=C/C(=O)Nc1cc(Oc2ccc(NC(=O)c3cc4ncsc4n(-c4ccc(F)cc4)c3=O)cc2F)ccn1 [Embodiment 15]
< 10 nM	–	100 to 500 nM	O=C(Nc1ccc(Oc2ccnc(NC(=O)N3CCOCC3)c2Cl)c(F)c1)c1cc2ncsc2n(-c2ccc(F)cc2)c1=O [Embodiment 17]
< 10 nM	–	–	Nc1nccc(Oc2ccc(NC(=O)c3cc4ncsc4n(-c4ccccc4CCO)c3=O)cc2F)c1Cl [Embodiment 19]
10 to 100 nM	–	< 100 nM	O=C(Nc1ccc(Oc2ccnc3[nH]ccc23)c(F)c1)c1cc2ncsc2n(-c2ccccc2CCO)c1=O [Embodiment 21]
10 to 100 nM	–	100 to 500 nM	CN(C)c1nc2cc(C(=O)Nc3ccc(Oc4ccnc(N)c4Cl)c(F)c3)c(=O)n(-c3ccc(F)cc3)c2s1 [Embodiment 23]
< 10 nM	–	100 to 500 nM	CN(C)c1nc2cc(C(=O)Nc3ccc(Oc4ccnc(N)c4)c(F)c3)c(=O)n(-c3ccc(F)cc3)c2s1 [Embodiment 24]
10 to 100 nM	–	100 to 500 nM	CN(C)c1nc2cc(C(=O)Nc3ccc(Oc4ccnc5[nH]ccc45)c(F)c3)c(=O)n(-c3ccc(F)cc3)c2s1 [Embodiment 26]
10 to 100 nM	–	–	COc1cc2c(Oc3ccc(NC(=O)c4cc5nc(N(C)C)sc5n(-c5ccc(F)cc5)c4=O)cc3F)ccnc2cc1OCCCN1CCOCC1 [Embodiment 27]
< 10 nM	–	< 100 nM	Cn1ncc2cc(C(=O)Nc3ccc(Oc4ccnc(N)c4Cl)c(F)c3)c(=O)n(-c3ccc(F)cc3)c21 [Embodiment 29]
< 10 nM	–	100 to 500 nM	COc1cc2c(Oc3ccc(NC(=O)c4cc5ncn(C)c5n(-c5ccc(F)cc5)c4=O)cc3F)ccnc2cc1OCCCN1CCOCC1 [Embodiment 37]
< 10 nM	–	–	COc1ccc2c(Oc3ccc(NC(=O)c4cc5c(n(-c6ccc(F)cc6)c4=O)N(C)CCO5)cc3F)ccnc2c1 [Embodiment 40]
< 10 nM	–	–	COc1ccc2c(Oc3ccc(NC(=O)c4cc5c(n(-c6ccc(F)cc6)c4=O)OCCN5C)cc3F)ccnc2c1 [Embodiment 47]
< 10 nM	–	–	CCOc1c(C(=O)Nc2ccc(Oc3ccnc(N)c3Cl)c(F)c2)c(=O)n(-c2ccc(F)cc2)c2scnc12 [Embodiment 49]
< 10 nM	–	–	CN(C)c1c(C(=O)Nc2ccc(Oc3ccnc(N)c3Cl)c(F)c2)c(=O)n(-c2ccc(F)cc2)c2scnc12 [Embodiment 53]
